± gives the expanded uncertainty stated by the source.
Assays:
[1] = refractive index (other wavelength) (dimensionless); settings: 94 kPa, Liquid, Wavelength=632.8 nm, minimum deviation method
[2] = refractive index (other wavelength) (dimensionless); xn = mol fraction of the nth substance listed; settings: 94 kPa, Liquid, Wavelength=632.8 nm, minimum deviation method, x2 = 0

SMILES: CCCCCCCC[n+]1ccn(C)c1.F[P-](F)(F)(F)(F)F [1-octyl-3-methylimidazolium hexafluorophosphate]
- refractive index ([1]; 298.19 K): 1.4215 ± 0.0003
- refractive index ([1]; 300.2 K): 1.421 ± 0.0003
- refractive index ([1]; 302.19 K): 1.4204 ± 0.0003
- refractive index ([1]; 304.2 K): 1.4199 ± 0.0003
- refractive index ([1]; 306.22 K): 1.4193 ± 0.0003
- refractive index ([1]; 308.24 K): 1.4188 ± 0.0003
- refractive index ([1]; 310.25 K): 1.4183 ± 0.0003
- refractive index ([1]; 312.24 K): 1.4178 ± 0.0003

SMILES: CC(C)O [propan-2-ol] + CCCCCCCC[n+]1ccn(C)c1.F[P-](F)(F)(F)(F)F
- refractive index ([2]; 298.21 K): 1.3736 ± 0.0002
- refractive index ([2]; 300.17 K): 1.3728 ± 0.0002
- refractive index ([2]; 302.2 K): 1.3719 ± 0.0002
- refractive index ([2]; 304.24 K): 1.371 ± 0.0002
- refractive index ([2]; 306.22 K): 1.3701 ± 0.0002
- refractive index ([2]; 308.22 K): 1.3693 ± 0.0002
- refractive index ([2]; 310.24 K): 1.3684 ± 0.0002
- refractive index ([2]; 312.2 K): 1.3675 ± 0.0002

SMILES: CC(C)O [propan-2-ol]
- refractive index ([1]; 298.21 K): 1.3736 ± 0.0002
- refractive index ([1]; 300.17 K): 1.3728 ± 0.0002
- refractive index ([1]; 302.2 K): 1.3719 ± 0.0002
- refractive index ([1]; 304.24 K): 1.371 ± 0.0002
- refractive index ([1]; 306.22 K): 1.3701 ± 0.0002
- refractive index ([1]; 308.22 K): 1.3693 ± 0.0002
- refractive index ([1]; 310.24 K): 1.3684 ± 0.0002
- refractive index ([1]; 312.2 K): 1.3675 ± 0.0002
